Laboratory results as given in patent US7699995B2, “Water treatment method” (priority 2006, dated 2010).

Columns and labels:
[1] = test system: Mycobacterium immunogenum (ATCC 700505); assay: High resolution MIC test, pure culture, 1/10x TSB; assay type: cell-based; details: M. immunogenum, 24 hours at 30° C.
Procedure: (§1) The lowest concentration of microbicide required to inhibit bacteria was determined by a high resolution MIC test. Varying amounts of each microbicide were added to media in a 96-well microtiter plate. The media used for the MIC tests was 10% Trypicase Soy Broth ( 1/10× TSB). […] serial dilutions were performed on a Biomek 2000 Workstation to obtain a range of closely spaced concentrations of microbicides. A cell suspension of stationary phase microorganisms, adjusted to provide 10^6 colony forming units (CFU)/mL in each well for bacteria was added to the microtiter plate. The microtiter plates were incubated for 24 hours at 30° C. for Mycobacterium immunogenum and 37° C. for Mycobacterium chelonae. The presence or absence of microbial growth was determined by measuring the turbidity in each well using a Thermomax microplate reader set at an absorbance of 650 nm. The lowest concentration of compound in which no growth was observed was considered the MIC value for the microbicide. The MIC value for each microbicide was determined from the average of four determinations for bacteria.
(§2) Bacterial strains tested included Mycobacterium chelonae (ATCC 14472) and Mycobacterium immunogenum (ATCC 700505). Mycobacterial cultures were grown overnight at 30° C. (M. immunogenum) or 37° C. (M. chelonae), in a rotary shaking bath in Middlebrook […] with Middlebrook enrichment. A 1:20 dilution of the overnight culture was made into the appropriate test media and inoculated to give a final concentration of 10^6 to 10^7 CFU/ml.

[2] = test system: Mycobacterium chelonae (ATCC 14472); assay: High resolution MIC test, pure culture, 1/10x TSB; assay type: cell-based; details: M. chelonae, 24 hours at 37° C.
Procedure: as §1, §2

Alcaligenes faecalis #93 = assay: MIC at pH 7.1 or pH 9.0, half strength TSB; assay type: cell-based; details: three days
Procedure: (§3) Minimum inhibitory concentration (MIC) studies were conducted to determine the lowest level of biocide required to inhibit growth of bacteria and fungi. Tests were conducted in 96-well microtiter plates. Biocides were added to growth media in the plates and serially diluted to obtain a range of concentrations. Tests were conducted in one-half strength trypticase soy broth (TSB; adjusted to pH 7.1 or pH 9.0). Bacteria and fungi were added to samples at 10^6 colony forming units per ml and incubated at 30° C. for three days. MIC values were determined visually on a growth no-growth basis.

Streptomyces sp. #130 = assay: MIC at pH 7.1 or pH 9.0, half strength TSB; assay type: cell-based; details: three days
Procedure: as §3

Aspergillus niger #128 = assay: MIC at pH 7.1 or pH 9.0, half strength TSB; assay type: cell-based; details: three days
Procedure: as §3

[3] = test system: Pseudomonas aeruginosa #13; assay: MIC at pH 7.1 or pH 9.0, half strength TSB; assay type: cell-based; details: three days
Procedure: as §3

Aspergillus sp. #120 = assay: MIC at pH 7.1 or pH 9.0, half strength TSB; assay type: cell-based; details: three days
Procedure: as §3

[4] = test system: Alcaligenes xylosoxydans #95; assay: MIC at pH 7.1 or pH 9.0, half strength TSB; assay type: cell-based; details: three days
Procedure: as §3

Pseudomonas diminuta #99 = assay: MIC at pH 7.1 or pH 9.0, half strength TSB; assay type: cell-based; details: three days
Procedure: as §3

Rhodotorula rubra #156 = assay: MIC at pH 7.1 or pH 9.0, half strength TSB; assay type: cell-based; details: three days
Procedure: as §3

[5] = test system: Pseudomonas pseudoalcaligenes #15; assay: MIC at pH 7.1 or pH 9.0, half strength TSB; assay type: cell-based; details: three days
Procedure: as §3

[6] = Stability in buffered water at various pH and temperatures (HPLC); assay type: physicochemical
Procedure: Biocides were added to buffer solutions and stability was tested at 22° and 50° C. using HPLC to measure biocide concentration at 0 time, 21 days, 43 days, and 88-90 days. Biocide stability was determined in the following buffer solutions: pH2, 0.01M HCl; pH6, 0.1M KH2PO4; pH8, 0.025M borate; pH10, 0.025M borate; pH12, 0.05M Na2HPO4. Biocide concentrations tested were 100 ppm MI, 200 ppm BIT, 44 ppm CMI.

O=c1[nH]sc2ccccc12 [BIT, 1,2-benzisothiazolin-3-one, reference compound]
Minimum Inhibitory Concentration [1]: 113 ppm active
Minimum Inhibitory Concentration [2]: 63 ppm active
Minimum Inhibitory Concentration (Alcaligenes faecalis #93; pH 7.1, 30° C.): <1.6 ppm
Minimum Inhibitory Concentration (Alcaligenes faecalis #93; pH 9.0, 30° C.): 6.3 ppm
Minimum Inhibitory Concentration (Streptomyces sp. #130; pH 7.1, 30° C.): <1.6 ppm
Minimum Inhibitory Concentration (Streptomyces sp. #130; pH 9.0, 30° C.): 3.2 ppm
Minimum Inhibitory Concentration (Aspergillus niger #128; pH 7.1, 30° C.): 50 ppm
Minimum Inhibitory Concentration (Aspergillus niger #128; pH 9.0, 30° C.): 200 ppm
Minimum Inhibitory Concentration ([3]; pH 7.1, 30° C.): 50 ppm
Minimum Inhibitory Concentration ([3]; pH 9.0, 30° C.): 200 ppm
Minimum Inhibitory Concentration (Aspergillus sp. #120; pH 7.1, 30° C.): 50 ppm
Minimum Inhibitory Concentration (Aspergillus sp. #120; pH 9.0, 30° C.): 400 ppm
Minimum Inhibitory Concentration ([4]; pH 7.1, 30° C.): 6.3 ppm
Minimum Inhibitory Concentration ([4]; pH 9.0, 30° C.): 25 ppm
Minimum Inhibitory Concentration (Pseudomonas diminuta #99; pH 7.1, 30° C.): 3.2 ppm
Minimum Inhibitory Concentration (Pseudomonas diminuta #99; pH 9.0, 30° C.): 12.5 ppm
Minimum Inhibitory Concentration (Rhodotorula rubra #156; pH 7.1, 30° C.): <6.3 ppm
Minimum Inhibitory Concentration (Rhodotorula rubra #156; pH 9.0, 30° C.): 100 ppm
Minimum Inhibitory Concentration ([5]; pH 7.1, 30° C.): 12.5 ppm
Minimum Inhibitory Concentration ([5]; pH 9.0, 30° C.): 25 ppm
Percent Remaining at: pH 2 ([6]; 22° C., day 0): 100%
Percent Remaining at: pH 6 ([6]; 22° C., day 0): 100%
Percent Remaining at: pH 8 ([6]; 22° C., day 0): 100%
Percent Remaining at: pH 10 ([6]; 22° C., day 0): 100%
Percent Remaining at: pH 12 ([6]; 22° C., day 0): 100%
Percent Remaining at: pH 2 ([6]; 22° C., day 21): 97%
Percent Remaining at: pH 6 ([6]; 22° C., day 21): 100%
Percent Remaining at: pH 8 ([6]; 22° C., day 21): 98%
Percent Remaining at: pH 10 ([6]; 22° C., day 21): 100%
Percent Remaining at: pH 12 ([6]; 22° C., day 21): 69%
Percent Remaining at: pH 2 ([6]; 22° C., day 43): 83%
Percent Remaining at: pH 6 ([6]; 22° C., day 43): 86%
Percent Remaining at: pH 8 ([6]; 22° C., day 43): 77%
Percent Remaining at: pH 10 ([6]; 22° C., day 43): 85%
Percent Remaining at: pH 12 ([6]; 22° C., day 43): 55%
Percent Remaining at: pH 2 ([6]; 22° C., day 88): 95%
Percent Remaining at: pH 6 ([6]; 22° C., day 88): 100%
Percent Remaining at: pH 8 ([6]; 22° C., day 88): 84%
Percent Remaining at: pH 10 ([6]; 22° C., day 88): 96%
Percent Remaining at: pH 12 ([6]; 22° C., day 88): 63%
Percent Remaining at: pH 2 ([6]; 50° C., day 0): 100%
Percent Remaining at: pH 6 ([6]; 50° C., day 0): 100%
Percent Remaining at: pH 8 ([6]; 50° C., day 0): 100%
Percent Remaining at: pH 10 ([6]; 50° C., day 0): 100%
Percent Remaining at: pH 12 ([6]; 50° C., day 0): 100%
Percent Remaining at: pH 2 ([6]; 50° C., day 21): 95%
Percent Remaining at: pH 6 ([6]; 50° C., day 21): 100%
Percent Remaining at: pH 8 ([6]; 50° C., day 21): 94%
Percent Remaining at: pH 10 ([6]; 50° C., day 21): 100%
Percent Remaining at: pH 12 ([6]; 50° C., day 21): 68%
Percent Remaining at: pH 2 ([6]; 50° C., day 43): 80%
Percent Remaining at: pH 6 ([6]; 50° C., day 43): 88%
Percent Remaining at: pH 8 ([6]; 50° C., day 43): 73%
Percent Remaining at: pH 10 ([6]; 50° C., day 43): 81%
Percent Remaining at: pH 12 ([6]; 50° C., day 43): 55%
Percent Remaining at: pH 2 ([6]; 50° C., day 90): 93%
Percent Remaining at: pH 6 ([6]; 50° C., day 90): 100%
Percent Remaining at: pH 8 ([6]; 50° C., day 90): 89%
Percent Remaining at: pH 10 ([6]; 50° C., day 90): 95%
Percent Remaining at: pH 12 ([6]; 50° C., day 90): 68%
